Data: patent publication US9266872B2, “2-hydroxyarylamide derivative or pharmaceutically acceptable salt thereof, preparation method thereof, and pharmaceutical composition for preventing or treating cancer containing same as active ingredient” (KOREA RESEARCH INSTITUTE OF BIOSCIENCE AND BIOTECHNOLOGY, priority 2011, dated 2016)

Target: T1, TMPRSS4 serine protease (Homo sapiens, UniProt Q9NRS4)
T1 construct: TMPRSS4 serine protease domain (205th Val˜437th Leu) was cloned in pET21b/NdeI-XhoI; inferred from pET21b XhoI cloning and Ni-NTA purification) (C); made in house; host or cells: E. coli BL21 (DE3)
T1 sequence (Q9NRS4 205-437): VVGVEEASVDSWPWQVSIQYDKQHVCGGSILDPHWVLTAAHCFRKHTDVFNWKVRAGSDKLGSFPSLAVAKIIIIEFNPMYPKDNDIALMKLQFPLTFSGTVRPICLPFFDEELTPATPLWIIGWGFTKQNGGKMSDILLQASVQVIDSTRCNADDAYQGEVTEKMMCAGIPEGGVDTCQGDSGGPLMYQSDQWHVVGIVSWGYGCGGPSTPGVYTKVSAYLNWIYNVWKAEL
Experiment: Inhibitory effect on TMPRSS4 serine protease activity using peptide substrate
Assay type: biochemical
Conditions: kallikrein peptide substrate 100 μM, DMSO negative control; for Intracellular protease activity Inhibition % 10 uM / inhibition at 10 µM: 10 uM compound; for inhibition at 10 µM: read-out: Intracellular protease activity Inhibition % 10 uM; for inhibition at 30 µM: read-out: Intracellular protease activity Inhibition % 30 uM; for inhibition at 100 µM: read-out: Intracellular protease activity Inhibition % 100 uM
Procedure: TMPRSS4 serine protease domain (205th Val˜437th Leu) was cloned in pET21b/NdeI-XhoI, which was introduced in E. coli BL21 (DE3). At this time, FlagX2-enterokinase cleavage site ([…]; total 15 amino acids) was inserted in N-terminal of TMPRSS4 serine protease domain as shown in FIG. 1. The forward and reverse primers for PCR used for the cloning were presented by SEQ. ID. NO: 1 and NO: 2.
The cells were cultured in 10 ml of LB containing ampicillin at 37° C. overnight. IL of LB+ampicillin was added thereto, followed by further culture until OD reached 0.6˜0.8. 0.1 mM IPTG was added thereto, followed by further culture for 16 hours. Cell pellet was obtained, purified by Ni-NTA (Qiagen), and dialyzed. TMPRSS4 serine protease (pro-form) labeled with 2 mg of 2Xflag-enterokinase cleavage site was conjugated to Ni-NTA resin (4°, overnight). Enterokinase (NEB) was treated thereto at the concentration of 0.0002%/w/w at room temperature for 5 hours. The sample was washed, eluted with 50 mM imidazole in 20 mM of sodium phosphate buffer, and then dialyzed.
The protein activity was evaluated by measuring fluorescence shown during hydrolysis of the peptide. […] Reaction was induced after adding 100 μM of the peptide substrate into reaction buffer (50 mM Tris-HCl (pH 8.0), 10 mM CaCl2, 1 μM ZnCl2). Then, fluorescence was measured at 5 minutes interval (excitation 385 nm, emission 455 nm).
Then, fluorescence (excitation 385 nm/emission 455 nm) was measured at 5 minutes interval for 150 minutes. […] Dimethylsulfoxide (DMSO) was used as the negative control.

SMILES	Intracellular protease activity Inhibition % 10 uM	inhibition at 10 µM	inhibition at 30 µM (30 uM compound)	inhibition at 100 µM (100 uM compound)	Intracellular protease activity Inhibition % 30 uM (30 uM compound)	Intracellular protease activity Inhibition % 100 uM (100 uM compound)
O=C(Nc1cc(C(F)(F)F)ccc1Cl)c1cc(Cl)ccc1O [Example 23, 5-chloro-N-(2-chloro-5-(trifluoromethyl)phenyl)-2-hydroxybenzamide]	64%	51 to 100%	99%	100%	–	–
O=C(NCc1cc(C(F)(F)F)cc(C(F)(F)F)c1)c1cc(Cl)ccc1O [Example 24, N-(3,5-bis-trifluoromethyl-benzyl)-5-chloro-2-hydroxy-benzamide]	–	36%	63%	–	–	–
O=C(Nc1cc(C(F)(F)F)cc(C(F)(F)F)c1)c1cccc(Cl)c1O [Example 26, N-(3,5-bis-trifluoromethyl-phenyl)-3-chloro-2-hydroxy-benzamide]	61%	51 to 100%	93%	–	–	–
O=C(Nc1cc(C(F)(F)F)cc(C(F)(F)F)c1Cl)c1cc(Cl)ccc1O [Example 29, 5-chloro-N-(2-chloro-3,5-bis-trifluoromethyl-phenyl)-2-hydroxy-benzamide]	–	43%	100%	–	–	–
O=C(Nc1cc(C(F)(F)F)cc(C(F)(F)F)c1)c1cc(-c2ccc(F)cc2F)ccc1O [Example 30]	–	5%	31%	–	–	–
Nc1ccc(O)c(C(=O)Nc2cc(C(F)(F)F)cc(C(F)(F)F)c2)c1 [Example 31, 5-amino-N-(3,5-bis(trifluoromethyl)phenyl)-2-hydroxybenzamide]	–	3%	30%	–	–	–
Cc1cc(Cl)cc(C(=O)Nc2cc(C(F)(F)F)cc(C(F)(F)F)c2)c1O [Example 34, N-(3,5-bis(trifluoromethyl)phenyl)-5-chloro-2-hydroxy-3-methylbenzamide]	–	33%	78%	–	–	–
CC(=O)Nc1ccc(O)c(C(=O)Nc2cc(C(F)(F)F)cc(C(F)(F)F)c2)c1 [Example 35, 5-acetamido-N-(3,5-bis(trifluoromethyl)phenyl)-2-hydroxybenzamide]	–	0%	0%	–	–	–
NC(=O)c1ccc(O)c(C(=O)Nc2cc(C(F)(F)F)cc(C(F)(F)F)c2)c1 [Example 38, N^3-(3,5-bis-trifluoromethyl-phenyl)-4-hydroxy-isophthalamide]	–	0%	21%	–	–	–
COc1c(C(F)(F)F)cc(NC(=O)c2cc(Cl)ccc2O)cc1C(F)(F)F [Example 39, 5-chloro-2-hydroxy-N-(4-methoxy-3,5-bis-trifluoromethyl-phenyl)-benzamide]	56%	51 to 100%	80%	–	–	–
O=C(Nc1ccccn1)c1cc(Cl)ccc1O [Example 40, 5-chloro-2-hydroxy-N-(pyridine-2-yl)benzamide]	–	–	0%	11%	–	–
O=C(Nc1ccc(C(F)(F)F)cn1)c1cc(Cl)ccc1O [Example 41, 5-chloro-2-hydroxy-N-(5-(trifluoromethyl)pyridine-2-yl)benzamide]	–	–	25%	47%	–	–
O=C(Nc1ccc(Cl)cn1)c1cc(Cl)ccc1O [Example 42, 5-chloro-N-(5-chloropyridine-2-yl)-2-hydroxybenzamide]	–	–	14%	55%	–	–
O=C(Nc1c(F)c(F)nc(F)c1F)c1cc(Cl)ccc1O [Example 43, 5-chloro-2-hydroxy-N-(perfluoropyridine-4-yl)benzamide]	–	–	31%	51%	–	–
O=C(Nc1ccc(Cl)nc1)c1cc(Cl)ccc1O [Example 45, 5-chloro-N-(6-chloropyridine-3-yl)-2-hydroxybenzamide]	–	–	6%	39%	–	–
O=C(Nc1ncc(C(F)(F)F)cc1Cl)c1cc(Cl)ccc1O [Example 46, 5-chloro-N-(3-chloro-5-(trifluoromethyl)pyridine-2-yl)-2-hydroxybenzamide]	–	–	0%	0%	–	–
O=C(Nc1ccnc(Cl)c1)c1cc(Cl)ccc1O [Example 47, 5-chloro-N-(2-chloropyridine-4-yl)-2-hydroxybenzamide]	–	–	35%	21%	–	–
Cc1cc(C)nc(NC(=O)c2cc(Cl)ccc2O)n1 [Example 48, 5-chloro-N-(4,6-dimethylpyrimidine-2-yl)-2-hydroxybenzamide]	–	–	0%	0%	–	–
O=C(Nc1ncccn1)c1cc(Cl)ccc1O [Example 49, 5-chloro-2-hydroxy-N-(pyrimidine-2-yl)benzamide]	–	–	0%	2%	–	–
Cc1csc(NC(=O)c2cc(Cl)ccc2O)n1 [Example 50, 5-chloro-2-hydroxy-N-(4-methylthiazole-2-yl)benzamide]	–	–	0%	67%	–	–
O=C(Nc1nccs1)c1cc(Cl)ccc1O [Example 51, 5-chloro-2-hydroxy-N-(thiazole-2-yl)benzamide]	–	–	44%	90%	–	–
O=C(Nc1nc(C(F)(F)F)cs1)c1cc(Cl)ccc1O [Example 52, 5-chloro-2-hydroxy-N-(4-(trifluoromethyl)thiazole-2-yl)benzamide]	–	–	61%	100%	–	–
O=C(Nc1cc(C(F)(F)F)cc(C(F)(F)F)c1)c1ccc(Cl)cc1O [Example 54, N-(3,5-bis(trifluoromethyl)phenyl)-4-chloro-2-hydroxybenzamide]	–	29%	74%	–	–	–
O=C(Nc1cc(Cl)c(Cl)c(Cl)c1)c1cc(Cl)ccc1O [Example 66, 5-chloro-2-hydroxy-N-(3,4,5-trichloro-phenyl)benzamide]	–	6%	23%	–	–	–

More lines, now with the values ahead:

Intracellular protease activity Inhibition % 10 uM	inhibition at 10 µM	inhibition at 30 µM (30 uM compound)	inhibition at 100 µM (100 uM compound)	Intracellular protease activity Inhibition % 30 uM (30 uM compound)	Intracellular protease activity Inhibition % 100 uM (100 uM compound)	SMILES
–	15%	53%	–	–	–	N#Cc1ccc(O)c(C(=O)Nc2cc(C(F)(F)F)cc(C(F)(F)F)c2)c1 [Example 56, N-(3,5-bis(trifluoromethyl)phenyl)-5-cyano-2-hydroxybenzamide]
–	0%	4%	–	–	–	CC(=O)Oc1ccc(Cl)cc1C(=O)Nc1cc(C(F)(F)F)cc(C(F)(F)F)c1 [Example 57, 2-(3,5-bis(trifluoromethyl)phenylcarbamoyl)-4-chlorophenylacetate]
–	0%	6%	–	–	–	O=C(Nc1cc(C(F)(F)F)cc(C(F)(F)F)c1)c1cc(Cl)ccc1OCc1ccccc1 [Example 58, 2-benzyloxy-N-(3,5-bis-trifluoromethyl-phenyl)-5-chlorobenzamide]
–	–	13%	75%	–	–	O=C(Nc1ccccc1)c1cc(Cl)ccc1O [Example 59, 5-chloro-2-hydroxy-N-phenylbenzamide]
–	–	44%	56%	–	–	Cc1cc(C)cc(NC(=O)c2cc(Cl)ccc2O)c1 [Example 60, 5-chloro-N-(3,5-dimethylphenyl)-2-hydroxybenzamide]
–	15%	58%	–	–	–	O=C(Nc1cc(Cl)cc(Cl)c1)c1cc(Cl)ccc1O [Example 61, 5-chloro-N-(3,5-dichlorophenyl)-2-hydroxybenzamide]
–	37%	59%	–	–	–	O=C(Nc1ccc(C(F)(F)F)c(C(F)(F)F)c1)c1cc(Cl)ccc1O [Example 62, N-(3,4-bis(trifluoromethyl)phenyl)-5-chloro-2-hydroxybenzamide]
30%	–	–	–	46%	98%	O=C(Nc1ccc(Br)c(C(F)(F)F)c1)c1cc(Cl)ccc1O [Example 63, N-(4-bromo-3-(trifluoromethyl)phenyl)-5-chloro-2-hydroxybenzamide]
67%	–	–	100%	–	–	O=C(Nc1cc(C(F)(F)F)ccc1F)c1cc(Cl)ccc1O [Example 64, 5-chloro-N-(2-fluoro-5-(trifluoromethyl)phenyl)-2-hydroxybenzamide]
–	0%	19%	–	–	–	O=C(Nc1cc(C(F)(F)F)cc(C(F)(F)F)c1)c1cc(Cl)cnc1O [Example 67, N-(3,5-bis(trifluoromethyl)phenyl)-5-chloro-2-hydroxynicotineamide]
–	0%	0%	–	–	–	O=C(Nc1cc(C(F)(F)F)cc(C(F)(F)F)c1)c1cnc2ccccc2c1O [Example 68, N-(3,5-bis(trifluoromethyl)phenyl)-4-hydroxyquinoline-3-carboxamide]
